Legend:
[1] = test system: Human osteoblasts (SaM-1); assay: Calcification of osteoblasts (Ca content of extracellular matrix, OCPC method); type: cell-based; settings: DHNA 10^-7 M to 10^-5 M, 2 mM α-glycerophosphoric acid, culturing for 32 days, vs 0.1% DMSO control (FIG. 4)
Method: Human osteoblasts (SaM-1), which had been cultured from long bone periosteum of a person obtained during fracture surgery, were employed. […] SaM-1 has been known to promote calcification in the presence of 2 mM of α-glycerophosphoric acid in a 1α, 25 (OH)2D3 concentration-dependent manner (Koshihara, Y. et al.: Biochem. Biophys. Res. commun., 145: 651-657, 1987).
The above-obtained SaM-1 cells of 18 PDL (population doubling level) were inoculated into a 12-well plate, and cultured until the cells reached a confluent state. Subsequently, α-glycerophosphoric acid, which is a calcification promoting agent, was added to the resultant culture broth such that the α-glycerophosphoric acid content became 2 mM. DHNA (10^−7 M to 10^−5 M) was added to the culture broth, followed by culturing for 32 days. For a control, DMSO (a solvent) was added to the culture broth such that the DMSO content became 0.1%. […]
The Ca content of extracellular matrix was quantified by use of a kit (Calcium C Test Wako) based on the o-cresolphthalein complexone method (OCPC method) (Gitleman, H. J.: Anal. Biochem., 18: 520-531, 1967).
After completion of culturing, the resultant cells were washed with a Hanks' solution. […] Thereafter, the resultant reaction mixture was subjected to measurement by use of an absorbance meter (570 nm) (FIG. 4).

ICR male mice = assay: Animal model with osteoporosis induced by FK-506; type: in vivo; settings: DHNA 75 μg/kg orally every day, FK-506 1 mg/kg i.p. for 10 weeks, vs control group (FK 506 (+)) (FIG. 5)
Method: As has been known, administration of FK-506, which is known as an immunosuppressive agent, to an animal induces osteoporosis-like conditions (J. Hard Tissue Biology, 103-107, 10 (2), 2001). […] FK-506 (1 mg/kg) was intraperitoneally administered to ICR male mice (eight weeks old) for 10 consecutive weeks. During the 10-week FK-506 administration, a feed (CRF-1, product of Oriental Yeast Co., Ltd.) was arbitrarily ingested into the mice, and DHNA (75 μg/kg) which had been suspended in a 1% aqueous DMSO (dimethyl sulfoxide) solution was orally administered to each of the mice every day.

Compound: O=C(O)c1cc(O)c2ccccc2c1O [DHNA, 1,4-dihydroxy-2-naphthoic acid]
- degree of calcification (amount of Ca) [1]: promotes calcification in a concentration-dependent manner
- bone density (ICR male mice): significantly higher than that of the mice in the control group

— US7834061B2, “Process for producing 1,4-dihydroxy-2-naphthoic acid” (Meiji Dairies Corporation, priority 2001, dated 2010)
